{
  "source": "paper PMC5950987",
  "about": "(Journal of Diabetes Science and Technology, 2017)",
  "origin": "cited, not measured here",
  "details": "administered by needle and syringe",
  "data": [
    {"substance": "regular human insulin", "values": [
      {"measurement": "Intraindividual variability of the metabolic effect", "value": "10-30%"}
    ]}
  ]
}
